Measured values reported in ChEMBL document CHEMBL1201862, “PubChem BioAssay data set” (2004).
Calls of active or inactive are those of the source.

What was measured:
[1] = molecular target: T1, DNA repair protein RAD52 homolog (Homo sapiens, UniProt P43351); type: functional, biochemical
T1 sequence (P43351 whole entry): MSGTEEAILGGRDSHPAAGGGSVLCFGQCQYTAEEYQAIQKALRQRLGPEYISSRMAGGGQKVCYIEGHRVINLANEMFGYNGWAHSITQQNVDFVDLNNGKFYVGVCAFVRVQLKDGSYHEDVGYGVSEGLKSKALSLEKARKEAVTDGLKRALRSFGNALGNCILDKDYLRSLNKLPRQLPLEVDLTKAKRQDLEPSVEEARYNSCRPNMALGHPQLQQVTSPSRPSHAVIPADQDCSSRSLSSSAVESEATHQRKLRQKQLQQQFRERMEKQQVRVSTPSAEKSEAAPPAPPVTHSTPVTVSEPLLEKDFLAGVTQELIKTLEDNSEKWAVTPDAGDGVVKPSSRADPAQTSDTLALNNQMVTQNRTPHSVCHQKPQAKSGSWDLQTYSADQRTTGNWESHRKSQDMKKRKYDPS

Vero = test: cells; type: functional; conditions: Chlorocebus sabaeus
[2] = OVCAR8 cell viability loss – plate reader, dry powder samples, PAX8 project, dose response (AID 743197); type: functional, cell-based; conditions: OVCAR-8
Paired box protein Pax-8 = Paired box protein Pax-8 (Homo sapiens, UniProt Q06710); test: PAX8 transcriptional activity inhibition in RMG-I – RMG-I cells, luciferase, cherry-pick, dose response (AID 687027); type: functional, cell-based;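 note: luciferase reporter driven by Pax8 target thyroperoxidase promoter measured by SteadyGlo luminescence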
[3] = Luminescence Cell-Based Dose Confirmation HTS to Identify Inhibitors of Platelet Dense Granule Release. [Related pubchem assays: 1663 (Primary HTS), 1678 (Summary of Project)]; type: functional
[4] = molecular target: Luciferin 4-monooxygenase (Photinus pyralis, UniProt P08659); test: inhibition of purified Photinus pyralis luciferase – biochemical, luminescence, dose response (AID 1891)
[5] = molecular target: T2, Calpain-2 catalytic subunit (Sus scrofa, UniProt P43367); test: m-calpain protease blockers, concentration series – biochemical, fluorogenic peptide substrate, dose response (AID 1420); type: functional
T2 sequence (P43367 whole entry): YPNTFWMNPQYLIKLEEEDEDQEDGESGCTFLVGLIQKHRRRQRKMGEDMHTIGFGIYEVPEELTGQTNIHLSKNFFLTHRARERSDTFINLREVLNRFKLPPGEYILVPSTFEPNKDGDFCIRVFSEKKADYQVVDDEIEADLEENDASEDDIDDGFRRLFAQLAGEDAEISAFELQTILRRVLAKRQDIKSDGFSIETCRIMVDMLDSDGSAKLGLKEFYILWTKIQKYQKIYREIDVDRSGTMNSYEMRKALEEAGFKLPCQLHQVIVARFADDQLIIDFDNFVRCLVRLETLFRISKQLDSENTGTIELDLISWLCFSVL

[6] = P. falciparum Dd2 growth inhibitors, dose response, SYBR Green, cherry-picked samples (AID 1159567); type: functional, cell-based

Sequence of Paired box protein Pax-8 (Q06710 whole entry): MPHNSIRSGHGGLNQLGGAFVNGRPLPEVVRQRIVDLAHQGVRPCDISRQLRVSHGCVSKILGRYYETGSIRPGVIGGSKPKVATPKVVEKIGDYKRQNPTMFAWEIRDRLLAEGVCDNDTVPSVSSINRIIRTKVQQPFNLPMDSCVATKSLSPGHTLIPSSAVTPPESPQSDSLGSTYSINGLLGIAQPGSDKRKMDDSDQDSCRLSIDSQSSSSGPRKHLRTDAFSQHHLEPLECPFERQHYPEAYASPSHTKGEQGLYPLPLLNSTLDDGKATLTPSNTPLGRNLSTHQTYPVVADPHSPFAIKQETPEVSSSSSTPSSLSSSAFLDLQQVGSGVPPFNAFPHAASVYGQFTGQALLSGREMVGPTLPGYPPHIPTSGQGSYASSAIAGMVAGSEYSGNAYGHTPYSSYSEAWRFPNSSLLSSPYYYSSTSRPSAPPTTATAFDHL
Sequence of Luciferin 4-monooxygenase (P08659 whole entry): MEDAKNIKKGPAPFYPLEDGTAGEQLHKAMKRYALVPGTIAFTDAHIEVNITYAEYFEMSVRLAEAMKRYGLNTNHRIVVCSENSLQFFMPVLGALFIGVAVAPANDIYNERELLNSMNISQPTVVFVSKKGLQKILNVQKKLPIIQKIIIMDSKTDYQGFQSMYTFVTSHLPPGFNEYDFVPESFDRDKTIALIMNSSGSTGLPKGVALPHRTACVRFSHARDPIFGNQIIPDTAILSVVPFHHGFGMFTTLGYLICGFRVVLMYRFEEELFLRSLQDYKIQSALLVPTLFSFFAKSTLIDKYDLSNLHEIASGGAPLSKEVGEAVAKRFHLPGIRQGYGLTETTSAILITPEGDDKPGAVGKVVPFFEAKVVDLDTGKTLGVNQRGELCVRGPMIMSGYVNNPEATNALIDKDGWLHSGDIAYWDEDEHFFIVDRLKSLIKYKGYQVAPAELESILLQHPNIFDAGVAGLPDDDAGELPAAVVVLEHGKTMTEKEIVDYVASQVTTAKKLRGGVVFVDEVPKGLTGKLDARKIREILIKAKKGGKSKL

## CCN(CC)CCN1CCn2c3c(c4cc(C)ccc42)CCCC31 (configuration not stated)
[1]
  AC50: 17.6 µM (active)

## Cc1cccc(C(=O)Nc2cccc(S(=O)(=O)NCc3ccco3)c2)c1
Vero
  CC50: 23.6 µM (active)

## COc1cccc(S(=O)(=O)N(C)C[C@H]2OCc3ccccc3-c3c(n(C)c4ccccc34)C(=O)N([C@H](C)CO)C[C@H]2C)c1
[2]
  AC50: > 70 µM (inactive)
Paired box protein Pax-8
  AC50: 9.53 µM (active)

## Cc1ccc(S(=O)(=O)N(C)C[C@@H]2OCCCC[C@H](C)Oc3ccc(NS(=O)(=O)c4cccs4)cc3C(=O)N([C@H](C)CO)C[C@H]2C)cc1
[2]
  AC50: > 70 µM (inactive)
Paired box protein Pax-8
  AC50: 6.6 µM (active)

## CC(=O)Nc1cccc(-c2cc(N3CCN(CCO)CC3)n3nccc3n2)c1
[1]
  AC50: 27.6 µM (active)

## COc1ccc(S(=O)(=O)N(C)C[C@H]2OCCCC[C@@H](C)Oc3ccc(NS(=O)(=O)c4c(C)noc4C)cc3C(=O)N([C@H](C)CO)C[C@H]2C)cc1
[2]
  AC50: 66 µM (active)
Paired box protein Pax-8
  AC50: 7.76 µM (active)

## C[C@H](CO)N1C[C@H](C)[C@H](CN(C)Cc2ccc(C(F)(F)F)cc2)OCCCC[C@H](C)Oc2ccc(NC(=O)c3ccccc3)cc2C1=O
[2]
  AC50: 43.7 µM (active)
Paired box protein Pax-8
  AC50: 9.33 µM (active)

## CN(C)CCCNc1nc2cc(-c3cnn(C)c3)sc2c(=O)n1C
[1]
  AC50: 10.2 µM (active)

## COc1cccc(/C=N/Nc2ccc(S(=O)(=O)O)cc2)c1O
[3]
  EC50: 3.13 µM (active)
[4]
  EC50: 3.91 µM (active)

## Cc1cc(C(=O)N/N=C/c2ccc(OCc3ccccc3)cc2)c(C)o1
[5]
  IC50: < 0.4 µM (not active)

## COc1ccc(CO/N=C/c2c(C)nc(O)nc2O)cc1
[3]
  EC50: 13.8 µM (active)
[4]
  EC50: > 112 µM (not active)

## Cc1ccccc1S(=O)(=O)N1[C@H](CO)[C@@H](c2ccc(C#CC3CC3)cc2)[C@@H]1C#N
[6]
  AC50: 4.33 µM (active)

## CC(C)(C)[S@+]([O-])N1Cc2cc(C(=O)NCCN3CCCCC3)nc(-c3cccc(-c4ccc(C#N)cc4)c3)c2[C@@H]1CCO
[6]
  AC50: 9.22 µM (active)

## COc1ccccc1CNC(=O)C[C@H]1C[C@H]2c3cc(NC(=O)Cc4ccncc4)ccc3O[C@H]2[C@@H](CO)O1
[6]
  AC50: 4.52 µM (active)

## C[C@@H]1CN([C@H](C)CO)C(=O)c2c(c3ccccc3n2C)-c2ccccc2CO[C@@H]1CN(C)Cc1cccc(F)c1
[6]
  AC50: 3.45 µM (active)

## COc1cccc(CNC(=O)c2cc3c(c(-c4cccc(-c5ccncc5)c4)n2)[C@@H](CCO)N([S@+]([O-])C(C)(C)C)C3)c1
[6]
  AC50: 4.32 µM (active)
